In patent US4316958A, “Process for producing optically active cephalosporin analogs” (Kyowa Hakko Kogyo Co., Ltd., priority 1979, dated 1982):
≈ marks a conversion by molar mass, not a printed value. Read-outs that look alike come from different tables or passages of the source.

What was measured:
Type in all cases: cell-based
[1] = system: Escherichia coli GN2411-5; experiment: Heart Infusion Agar Dilution Method, antimicrobial activity (MIC)
Description: (§1) Antimicrobial activities of the compounds obtained in Reference Examples 1 and 2 are as follows. Heart Infusion Agar Dilution Method (pH 7.2) is used. A cephalosporin compound having the same acyl side chain corresponding to the dl-compound is used as a control. The compounds are identified as follows.

Escherichia coli Juhl = experiment: as above
Description: as §1

Escherichia coli NIHJC-2 = experiment: as above
Description: as §1

[2] = system: Klebsiella pneumoniae 8045; experiment: as above; details: Klebsiella pneumoniae, 8045, pH 7.2, Klebsiella pneumoniae 8045
Description: as §1

[3] = system: Klebsiella pneumoniae Y-60; experiment: as above
Description: as §1

Proteus mirabilis 1287 = experiment: as above; details: Proteus mirabilis, 1287, pH 7.2, Proteus mirabilis 1287
Description: as §1

Proteus morganii KY 4298 = experiment: as above
Description: as §1

Proteus rettgeri KY 4289 = experiment: as above; details: Providencia rettgeri, KY4289, pH 7.2
Description: as §1

Proteus vulgaris 6897 = experiment: as above; details: Proteus vulgaris, 6897, pH 7.2, Proteus vulgaris 6897
Description: as §1

[4] = system: Pseudomonas aeruginosa #1; experiment: as above
Description: as §1

[5] = system: Pseudomonas aeruginosa 145; experiment: as above; details: Pseudomonas aeruginosa, 145, pH 7.2, Pseudomonas aeruginosa 145
Description: as §1

Pseudomonas putida 264 = experiment: as above
Description: as §1

Serratia marcescens T-26 = experiment: as above
Description: as §1

Serratia marcescens T-55 = experiment: as above
Description: as §1

[6] = system: Staphylococcus aureus 209-P; experiment: as above
Description: as §1

[7] = system: Staphylococcus aureus Smith; experiment: as above
Description: (§2) Heart Infusion Agar Dilution Method (pH 7.2) is used. A cephalosporin compound having the same acyl side chain corresponding to the dl-compound is used as a control. The compounds are identified as follows.

[8] = system: Staphylococcus epidermidis; experiment: as above; details: pH 7.2
Description: as §2

[9] = antimicrobial activity (stated in words)
Description: as §1

[10] = Escherichia coli, GN2411, pH 7.2, Escherichia coli GN2411-5, read-out: MIC
[11] = Escherichia coli, pH 7.2, Escherichia coli Juhl, read-out: MIC
[12] = Escherichia coli, NIHJC2, pH 7.2, Escherichia coli NIHJC-2, read-out: MIC
[13] = Klebsiella pneumoniae, Y60, pH 7.2, Klebsiella pneumoniae Y-60, read-out: MIC
[14] = Morganella morganii, KY4298, pH 7.2, Proteus morganii KY 4298, read-out: MIC
[15] = Pseudomonas aeruginosa, pH 7.2, Pseudomonas aeruginosa #1, read-out: MIC
[16] = Serratia marcescens, T26, pH 7.2, Serratia marcescens T-26, read-out: MIC
[17] = Serratia marcescens T-55, pH 7.2
[18] = Staphylococcus aureus 209-P, pH 7.2

CO/N=C(\C(=O)N[C@@H]1C(=O)N2C(C(=O)O)=C(COC(C)=O)CS[C@H]12)c1csc(N)n1 [C, reference compound]
MIC [1, 10]: 0.05 µg/mL (≈ 0.11 µM)
MIC (Escherichia coli Juhl; [11]): 0.05 µg/mL (≈ 0.11 µM)
MIC (Escherichia coli NIHJC-2; [12]): 0.1 µg/mL (≈ 0.22 µM)
MIC [2]: ≤ 0.01 µg/mL
MIC [3, 13]: 0.05 µg/mL (≈ 0.11 µM)
MIC (Proteus mirabilis 1287): 0.02 µg/mL (≈ 0.0439 µM)
MIC (Proteus morganii KY 4298; [14]): 0.05 µg/mL (≈ 0.11 µM)
MIC (Proteus rettgeri KY 4289): ≤ 0.01 µg/mL
MIC (Proteus vulgaris 6897): ≤ 0.01 µg/mL
MIC [4, 15]: 6.25 µg/mL (≈ 13.7 µM)
MIC [5]: 50 µg/mL (≈ 110 µM)
MIC (Pseudomonas putida 264; Pseudomonas putida, 264, pH 7.2, Pseudomonas putida 264, read-out: MIC): 0.1 µg/mL (≈ 0.22 µM)
MIC (Serratia marcescens T-26; [16]): 0.78 µg/mL (≈ 1.71 µM)
MIC (Serratia marcescens T-55; Serratia marcescens, T55, pH 7.2, Serratia marcescens T-55, read-out: MIC): 0.1 µg/mL (≈ 0.22 µM)
MIC ([6]; Staphylococcus aureus, 209P, pH 7.2, Staphylococcus aureus 209-P, read-out: MIC): 0.78 µg/mL (≈ 1.71 µM)
MIC ([7]; Staphylococcus aureus Smith, pH 7.2, read-out: MIC): 1.56 µg/mL (≈ 3.43 µM)
MIC [8]: 1.56 µg/mL (≈ 3.43 µM)

CO/N=C(\C(=O)N[C@@H]1C(=O)N2C(C(=O)O)=CCC[C@H]12)c1csc(N)n1 [A, (+)-cis-7-[2-(2-amino-4-thiazolyl)-2-syn-methoxyiminoacetamido]-1-azabicyclo[4,2,0]oct-2-en-8-on-2-carboxylic acid]
MIC ([1]; Escherichia coli GN2411-5, pH 7.2): 0.01 µg/mL (≈ 0.0274 µM)
MIC (Escherichia coli Juhl; Escherichia coli Juhl, pH 7.2): 0.02 µg/mL (≈ 0.0547 µM)
MIC (Escherichia coli NIHJC-2; Escherichia coli NIHJC-2, pH 7.2): 0.02 µg/mL (≈ 0.0547 µM)
MIC [2]: ≤ 0.006 µg/mL
MIC ([3]; Klebsiella pneumoniae Y-60, pH 7.2): 0.02 µg/mL (≈ 0.0547 µM)
MIC (Proteus mirabilis 1287): 0.01 µg/mL (≈ 0.0274 µM)
MIC (Proteus morganii KY 4298; [14]): 0.05 µg/mL (≈ 0.137 µM)
MIC (Proteus rettgeri KY 4289): ≤ 0.006 µg/mL
MIC (Proteus vulgaris 6897): ≤ 0.006 µg/mL
MIC ([4]; Pseudomonas aeruginosa #1, pH 7.2): 6.25 µg/mL (≈ 17.1 µM)
MIC (Serratia marcescens T-26; Serratia marcescens T-26, pH 7.2): 0.2 µg/mL (≈ 0.547 µM)
MIC (Serratia marcescens T-55; [17]): 0.02 µg/mL (≈ 0.0547 µM)
MIC [6, 18]: 3.12 µg/mL (≈ 8.54 µM)
MIC ([7]; Staphylococcus aureus Smith, pH 7.2): 6.25 µg/mL (≈ 17.1 µM)
antimicrobial activity [9]: strong antimicrobial activity

CO/N=C(\C(=O)N[C@@H]1C(=O)N2C(C(=O)O)=C[C@@H](C)C[C@H]12)c1csc(N)n1 [B, (-)-cis-7β-[2-(2-amino-4-thiazolyl)-2-syn-methoxyiminoacetamido]-4α-methyl-1-azabicyclo[4,2,0]oct-2-en-8-on-2-carboxylic acid]
MIC [1, 10]: ≤ 0.01 µg/mL
MIC (Escherichia coli Juhl; [11]): 0.02 µg/mL (≈ 0.0527 µM)
MIC (Escherichia coli NIHJC-2; [12]): 0.02 µg/mL (≈ 0.0527 µM)
MIC [2]: ≤ 0.01 µg/mL
MIC [3, 13]: 0.02 µg/mL (≈ 0.0527 µM)
MIC (Proteus mirabilis 1287): ≤ 0.01 µg/mL
MIC (Proteus morganii KY 4298; Proteus morganii KY 4298, pH 7.2): 0.02 µg/mL (≈ 0.0527 µM)
MIC (Proteus rettgeri KY 4289): ≤ 0.01 µg/mL
MIC (Proteus vulgaris 6897): ≤ 0.01 µg/mL
MIC [4, 15]: 25 µg/mL (≈ 65.9 µM)
MIC [5]: 100 µg/mL (≈ 264 µM)
MIC (Pseudomonas putida 264; Pseudomonas putida 264, pH 7.2): 0.05 µg/mL (≈ 0.132 µM)
MIC (Serratia marcescens T-26; [16]): 0.4 µg/mL (≈ 1.05 µM)
MIC (Serratia marcescens T-55; [17]): 0.05 µg/mL (≈ 0.132 µM)
MIC [6, 18]: 1.56 µg/mL (≈ 4.11 µM)
MIC ([7]; Staphylococcus aureus, pH 7.2, Staphylococcus aureus Smith, read-out: MIC): 6.25 µg/mL (≈ 16.5 µM)
antimicrobial activity [9]: strong antimicrobial activity
